Data: patent US20230257398A1, “PYRIMIDINE-BASED TRICYCLIC COMPOUND AND USE THEREOF” (Chia Tai Tianqing Pharmaceutical Group Co., Ltd., priority 2020, published 2023)

Target: T1, sGC (Homo sapiens, UniProt Q02108+Q02153)
T1 construct: Preparation of LNCap Cells; endogenous in cells; host or cells: LNCaP cells (14th generation), no transfection described
T1 sequence (Q02153 1-619): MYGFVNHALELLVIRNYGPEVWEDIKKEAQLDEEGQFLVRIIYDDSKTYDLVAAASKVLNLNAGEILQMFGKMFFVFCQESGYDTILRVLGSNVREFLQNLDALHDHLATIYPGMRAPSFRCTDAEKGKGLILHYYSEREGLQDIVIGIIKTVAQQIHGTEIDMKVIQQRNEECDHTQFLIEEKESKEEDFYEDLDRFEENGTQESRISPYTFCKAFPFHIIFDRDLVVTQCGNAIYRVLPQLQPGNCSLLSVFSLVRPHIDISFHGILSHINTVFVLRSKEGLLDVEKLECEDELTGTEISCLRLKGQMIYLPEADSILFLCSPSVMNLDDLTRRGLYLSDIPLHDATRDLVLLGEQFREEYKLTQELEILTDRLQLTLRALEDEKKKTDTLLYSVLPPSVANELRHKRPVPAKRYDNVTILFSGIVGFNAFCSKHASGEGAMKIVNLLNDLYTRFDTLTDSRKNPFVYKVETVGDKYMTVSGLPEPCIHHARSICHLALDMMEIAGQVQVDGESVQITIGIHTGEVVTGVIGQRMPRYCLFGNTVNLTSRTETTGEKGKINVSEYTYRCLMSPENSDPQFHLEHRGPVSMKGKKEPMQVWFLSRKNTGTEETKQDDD
T1 sequence (Q02108 1-690): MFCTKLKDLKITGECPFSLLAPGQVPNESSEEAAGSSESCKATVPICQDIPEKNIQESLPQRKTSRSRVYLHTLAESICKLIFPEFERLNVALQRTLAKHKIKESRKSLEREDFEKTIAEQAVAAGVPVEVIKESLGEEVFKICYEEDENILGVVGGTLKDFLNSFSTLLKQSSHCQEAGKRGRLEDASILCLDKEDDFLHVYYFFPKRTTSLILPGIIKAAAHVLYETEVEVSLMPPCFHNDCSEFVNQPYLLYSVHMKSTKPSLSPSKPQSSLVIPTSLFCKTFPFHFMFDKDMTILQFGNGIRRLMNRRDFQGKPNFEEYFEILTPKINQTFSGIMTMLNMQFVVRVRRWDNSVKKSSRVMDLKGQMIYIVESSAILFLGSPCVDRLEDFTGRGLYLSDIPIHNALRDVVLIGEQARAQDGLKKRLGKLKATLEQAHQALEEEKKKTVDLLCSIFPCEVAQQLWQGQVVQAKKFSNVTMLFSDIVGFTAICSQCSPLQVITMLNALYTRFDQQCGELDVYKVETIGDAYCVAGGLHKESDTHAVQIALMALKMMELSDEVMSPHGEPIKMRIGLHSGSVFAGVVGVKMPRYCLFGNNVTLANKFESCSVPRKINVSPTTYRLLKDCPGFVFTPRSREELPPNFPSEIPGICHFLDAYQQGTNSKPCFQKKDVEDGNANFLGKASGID
Test: lnCap cell-based cGMP expression assay (stimulating activity for sGC)
Details: with DETA-NO, 37° C. 30 min, HTRF cGMP
Protocol: I. lnCap Cell-Based cGMP Expression Assay
1) Preparation of Solutions
10% BSA (Bovine Serum Albumin)
10 g of BSA was dissolved in 100 mL of double distilled water (ddH2O) to give 10% BSA.
5 mM DETA (Diethylenetriamine)-NO
10 mg of DETA-NO was weighed out and dissolved in 12.2 mL of double distilled water (ddH2O) to give 5 mM DETA-NO, which was aliquoted and cryopreserved in a freezer at −20° C.
a) To 1 mL of a lysis buffer was added 50 μL of cGMP-D2 (D2-labeled cyclic guanosine monophosphate), and the mixture was well mixed.
b) To 1 mL of a lysis buffer was added 50 μL of anti-cGMP cryptate (Eu^3+ cryptate-labeled anti-cyclic guanosine monophosphate antibody), and the mixture was well mixed.
(1) The compounds were diluted to 5 mM with DMSO. 10 μL of each of the compounds was transferred to a shallow well plate for Echo.
(2) The compounds were gradiently diluted with Echo. Each of the compounds was diluted to obtain 10 concentration gradients, and 50 nL of each of the concentration gradients was added to a 384 microwell plate.
3) Preparation of LNCap Cells
(1) LNCap medium: RPMI1640+10% fetal bovine serum+1% […].
(2) Phosphate buffered saline, pancreatin and the medium used in the process of cell passaging were pre-heated in a water bath at 37° C.
(3) The cells (the 14th generation) were taken out of the 37° C., 5% CO2 incubator, and the old medium was pipetted off the culture flask.
(4) 5 mL of phosphate buffered saline was pipetted into the culture flask to rinse the cells, and then the liquid was discarded.
(5) 3 mL of pancreatin was pipetted into the culture flask. After the culture flask was shaken, the liquid was discarded, and the culture flask was placed in the incubator.
(6) After about 2 min the culture flask was taken out. […] The cell suspension was transferred to a 50 mL centrifuge tube.
(7) 0.7 mL of the cell suspension was pipetted into a counter cup and the cells were counted on a ViCell XR. The remaining cells were centrifuged at 1000 rpm for 5 min, and the supernatant was removed.
(8) The cells were washed by adding 10 mL of the washing buffer and centrifuged at 1000 rpm for 5 min, and the supernatant was removed.
(9) The assay buffer was added to adjust the cell concentration to 1.25×10^6/mL. The cells were added to the microwell plate at 8 μL/well.
4) Formulation and Addition of DETA-NO
(1) 10 μL of 5 mM DETA-NO was added to 1240 μL of the assay buffer and to 1657 μL of the assay buffer to give 40 μM DETA-NO and 30 μM DETA-NO, respectively.
(2) DETA-NO was transferred to the 384 microwell plate at 2 μL/well using Bravo.
(3) The mixtures were centrifuged at 1500 rpm for 5 min. The microwell plate was incubated at 37° C. for 30 min.
5) Preparation of cGMP Standard Curve
(1) 1 mM of the cGMP stock solution was diluted to 10 μM with the assay buffer. Then 4-fold gradient dilution was performed to obtain 11 concentration gradients.
(2) The cGMP dilutions were added to the microwell plate at 10 μL/well.
6) Addition of Detection Reagents and Plate Reading
(1) cGMP-D2 was transferred to the 384 microwell plate at 5 μL/well using Bravo. The mixtures were centrifuged at 1500 rpm for 1 min.
(2) The anti-cGMP cryptate was transferred to the 384 microwell plate at 5 μL/well using Bravo. The mixtures were centrifuged at 1500 rpm for 1 min.
(3) The plate was incubated at room temperature for 1 h.
(4) 665/615 was read using envision.
(1) cGMP standard curve: a standard curve was generated using Graphpad prism based on the cGMP concentrations and 665/615 ratios.
(2) Conversion of HTRF (homogeneous time-resolved fluorescence) ratios (665/615) to cGMP concentrations: in Graphpad prism, the HTRF ratios (665/615) were copied into the ratio column of the cGMP standard curve, and the “Log inhibitor vs response-variable slope” analysis was run with “interpolate” selected to convert the HTRF ratios (665/615) to cGMP concentrations. […]

MEC: minimum effective concentration to stimulate cGMP production (three times greater than the basal value) in lnCap cells: 33.55 nM
Compound: CCOC(=O)C12CCOc3nc(-c4nn(Cc5ccccc5F)c5ncc(F)cc45)nc(c31)NC2=O (stereo not shown) [Compound 048]
